Data on 85 molecules can be found in patent US7989464B2, “mGluR1 antagonists as therapeutic agents” (Schering Corporation, priority 2004, dated 2011).

Read-outs that look alike come from different tables or passages of the source.

In the experiment the target is T1, hmGluR1 receptor (Homo sapiens, UniProt Q13255).
T1 construct: expressed in transfected cells
Briefly: IC50 determination: intracellular calcium mobilization (FLIPR) upon Quisqualate stimulation in CHO cells stably expressing hmGluR1. It counts as cell-based. The note with it: against Quisqualate 1 μM (EC80). In a few lines:
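CHO cells stably expressing hmGluR1 were kept overnight in DMEM high glucose with GPT and 1 mM pyruvate, then loaded 2 h with Calcium 3 dye.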
For orientation: Calcium assays in cells follow changes in intracellular calcium, usually with a dye or a luminescent sensor.

Where [1] appears, read: FLIPR calcium mobilization, read-out: IC50 Class.
Where [2] appears, read: class symbols, read-out: mGIuR 1 IC50.
Where [3] appears, read: FLIPR calcium mobilization, read-out: mGluR1 IC50.

T1 sequence (Q13255 19-1194): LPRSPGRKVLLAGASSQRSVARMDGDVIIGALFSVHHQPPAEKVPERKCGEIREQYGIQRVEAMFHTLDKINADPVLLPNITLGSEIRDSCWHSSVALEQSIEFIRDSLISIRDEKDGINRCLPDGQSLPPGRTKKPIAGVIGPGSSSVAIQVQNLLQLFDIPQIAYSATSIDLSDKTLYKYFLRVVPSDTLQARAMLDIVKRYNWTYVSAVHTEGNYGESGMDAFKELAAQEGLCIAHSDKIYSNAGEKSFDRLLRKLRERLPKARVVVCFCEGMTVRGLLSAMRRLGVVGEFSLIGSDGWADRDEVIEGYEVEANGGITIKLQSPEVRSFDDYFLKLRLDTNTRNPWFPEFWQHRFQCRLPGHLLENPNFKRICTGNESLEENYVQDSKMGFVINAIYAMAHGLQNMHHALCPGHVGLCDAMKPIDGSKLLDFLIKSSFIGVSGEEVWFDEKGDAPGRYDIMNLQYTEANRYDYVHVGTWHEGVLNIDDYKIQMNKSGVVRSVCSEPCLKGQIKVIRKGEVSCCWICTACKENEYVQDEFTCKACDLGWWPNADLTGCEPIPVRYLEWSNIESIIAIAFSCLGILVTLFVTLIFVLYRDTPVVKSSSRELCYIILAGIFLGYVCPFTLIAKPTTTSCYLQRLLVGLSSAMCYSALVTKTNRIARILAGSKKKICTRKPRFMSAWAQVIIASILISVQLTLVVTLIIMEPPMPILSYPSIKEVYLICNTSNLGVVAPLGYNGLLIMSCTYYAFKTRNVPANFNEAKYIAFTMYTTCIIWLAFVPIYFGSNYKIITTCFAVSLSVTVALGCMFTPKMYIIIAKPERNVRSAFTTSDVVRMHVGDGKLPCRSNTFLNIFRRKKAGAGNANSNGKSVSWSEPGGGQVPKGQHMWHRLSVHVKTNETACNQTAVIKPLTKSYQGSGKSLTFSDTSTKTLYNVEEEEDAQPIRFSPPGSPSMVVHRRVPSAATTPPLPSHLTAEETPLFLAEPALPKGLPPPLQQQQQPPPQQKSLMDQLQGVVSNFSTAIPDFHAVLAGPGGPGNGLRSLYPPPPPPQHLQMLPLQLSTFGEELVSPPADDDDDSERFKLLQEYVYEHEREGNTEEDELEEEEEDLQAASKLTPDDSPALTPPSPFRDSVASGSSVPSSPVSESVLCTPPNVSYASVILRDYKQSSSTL

For `COCCCNc1ccnc2sc3c(=O)n(-c4ccc(Br)cc4)cnc3c12` [28GR], the IC50 under setting [1] was less than 50 nM.
The same measure, in the same setting: the figure for `O=c1c2sc3ncnc(NC4CC4)c3c2ncn1-c1ccc(C2CC2)cc1` [137C] is 50 to 150 nM; for `COc1ccc(Nc2ncnc3sc4c(=O)n(-c5ccc(C)cc5)cnc4c23)cc1` [95GJ] it is 50 to 150 nM.
Take `CN(C)c1c(Cl)ncc2sc3c(=O)n(-c4ccc(Cl)cc4)cnc3c12` [compound 54]: the IC50 under setting [2] lay in the range of 150 to 1000 nM.
As to `COc1cc(-n2cnc3c(sc4nccc(N(C)C)c43)c2=O)ccc1F` [28FW], the IC50 under setting [1] was in the range of 150 to 1000 nM.
`CCCc1nc2c(sc3nccc(N(C)C)c32)c(=O)n1-c1ccc(C)cc1` [116B]: the IC50 under setting [2] was 150 to 1000 nM.
Regarding `O=c1c2sc3nccc(NCCCO)c3c2ncn1-c1ccc(Cl)cc1` [28GD], the IC50 was less than 50 nM under setting [1] and 0.77 nM under setting [3].
For the molecule `CN(C)c1ccnc2sc3c(=O)n(-c4ccc(F)cc4)cnc3c12` [7G], the IC50 under setting [2] is less than 50 nM.
For the molecule `CN(CCO)c1ccnc2sc3c(=O)n(-c4ccc5occc5c4)cnc3c12` [28BE], the IC50 under setting [1] was less than 50 nM.
As for `Cc1ccc(-n2cnc3c(sc4ncc(C(=O)N(C)C)cc43)c2=O)cc1` [205A], the IC50 under setting [1] is more than 1000 nM.
Still for that read-out and setting: the figure for `O=c1c2sc3ncnc(NCC(F)(F)F)c3c2ncn1-c1ccc(Cl)cc1` [95EF] is less than 50 nM.
Consider `CN(C)c1ccnc2sc3c(=O)n(CCN4CCCCC4)cnc3c12` [15O], for which the IC50 under setting [2] is more than 1000 nM.
On to `COc1ccc(Nc2ncnc3sc4c(=O)n(-c5ccc(OC)cc5)cnc4c23)cc1` [190B], for which, under setting [1], the IC50 lay within 50 to 150 nM.
In the case of `COc1ccc(-n2cnc3c(sc4nccc(N(C)C)c43)c2=O)cc1` [7BG], the IC50 under setting [2] is less than 50 nM.
As to `Cc1ccc(-n2cnc3c(sc4ncnc(NCC5CC5)c43)c2=O)cc1` [95DP], under setting [1], the IC50 fell in the range of 50 to 150 nM.
In the case of `CN(C)c1ccnc2sc3c(=O)n(-c4ccc(O)c(F)c4)cnc3c12` [7CT], under setting [2], the half-inhibitory concentration (IC50) is less than 50 nM.
On the same count and under the same terms, the figure for `CN(C)c1ccnc2sc3c(=O)n(-c4ccc5[nH]ncc5c4)cnc3c12` [7AN] is 150 to 1000 nM; for `CCN(C)c1ccnc2sc3c(=O)n(-c4ccc(C)cc4)c(C)nc3c12` [113I] it is less than 50 nM.
Regarding `O=c1c2sc3nccc(-n4cccn4)c3c2ncn1C1CCCCC1` [30B], under setting [2], the IC50 was more than 1000 nM.
Still for that read-out and setting: next, `CCCN(C)c1ccnc2sc3c(=O)n(-c4ccc(C)cc4)c(C)nc3c12` [113M]: 50 to 150 nM.
Turning to `O=c1c2sc3ncc(Br)c(NC4CC4)c3c2ncn1-c1ccc(Cl)cc1` [28EI], under setting [1], the IC50 lay in the range of 150 to 1000 nM.
As for `C#CCNc1ncnc2sc3c(=O)n(-c4ccc5sccc5c4)cnc3c12` [95EP], the IC50 under setting [1] was 150 to 1000 nM.
With `CNc1ccnc2c1c1ncn(-c3ccc(C)cc3)c(=O)c1n2Cc1ccc(OC)cc1` [134I], the IC50 under setting [2] is more than 1000 nM.
As to `Cc1nc(N)c2c(n1)sc1c(=O)n(-c3ccc(F)cc3)cnc12` [95EW], the IC50 under setting [1] lay within 50 to 150 nM.
Same read-out and setting: the figure for `COc1c(Br)cnc2sc3c(=O)n(-c4ccc(Cl)cc4)cnc3c12` [28EH] is less than 50 nM.
With `CN(C)c1ccnc2sc3c(=O)n([C@H]4CC[C@H](O)CC4)cnc3c12` [15T], the IC50 under setting [2] fell in the range of 150 to 1000 nM.
Still for that read-out and setting: next, `CCNc1ccnc2sc3c(=O)n(-c4ccc5c(c4)OCO5)cnc3c12` [131E]: less than 50 nM; `CN(C)c1cncc2sc3c(=O)n(-c4ccc(O)cc4)cnc3c12` [37H]: more than 1000 nM; `O=c1c2sc3nccc(NC4CCCC4)c3c2ncn1C1CCCCC1` [28T]: more than 1000 nM.
Take `Cc1ccc(-n2cnc3c(sc4ncc(Br)c(Cl)c43)c2=O)cc1` [compound 171]: the IC50 under setting [1] is more than 1000 nM.
For `Cc1ccc(-n2cnc3c(sc4nccc(N(C)C)c43)c2=O)nc1` [7DE], the IC50 under setting [2] is less than 50 nM.
On to `C#CCNc1ncnc2sc3c(=O)n(-c4ccc5occc5c4)cnc3c12` [95ES], for which the IC50 under setting [1] is less than 50 nM.
Same read-out and setting: next, `CCN(C)c1ccnc2sc3c(=O)n(-c4ccc(F)cc4)cnc3c12` [28ID]: less than 50 nM.
On the same count and under the same terms, next, `C#CCN(C)c1ccnc2sc3c(=O)n(-c4ccc(Cl)cc4)cnc3c12` [28DX]: less than 50 nM.
Regarding `C#CCOc1ccnc2sc3c(=O)n(-c4ccc(C)cc4)cnc3c12` [66A], the IC50 under setting [2] is less than 50 nM.
Same read-out and setting: next, `COc1ccc(-n2cnc3c(sc4nccc(NCC5CC5)c43)c2=O)cc1` [28AX]: 150 to 1000 nM.
On to `O=c1c2sc3ncnc(NC4CC4)c3c2ncn1-c1ccc2scnc2c1` [95BA], for which the IC50 under setting [1] was less than 50 nM.
Take `COc1ccc(-n2cnc3c(sc4nccc(N(C)C)c43)c2=O)cc1F` [7AP]: the IC50 under setting [2] is less than 50 nM.
On to `COc1ccnc2sc3c(=O)n(-c4ccc5c(c4)OCCO5)cnc3c12` [161B], for which, under setting [1], the IC50 was more than 1000 nM.
Consider `CC1CCCC(C)N1n1cnc2c(sc3nccc(N(C)C)c32)c1=O` (centres unmarked) [60F], for which the IC50 under setting [2] fell in the range of 50 to 150 nM.
Still for that read-out and setting: next, `COc1cc(N(C)C)c2c(n1)sc1c(=O)n(-c3ccc(C)cc3)cnc12` [compound 58]: less than 50 nM.
With `Cc1ccc(-n2cnc3c(sc4nccc(NC(C)(C)C)c43)c2=O)cc1` [28EO], under setting [1], the IC50 fell in the range of 150 to 1000 nM.
Same read-out and setting: next, `COCCCNc1ccnc2sc3c(=O)n(-c4ccc(Cl)cc4)cnc3c12` [28GN]: less than 50 nM.
As for `CN(C)c1ccnc2sc3c(=O)n(-c4nc5ccccc5s4)cnc3c12` [7BQ], under setting [2], the IC50 was 150 to 1000 nM.
Still for that read-out and setting: the figure for `Cc1ccc(-n2cnc3c(sc4nccc(N(C)C)c43)c2=O)cc1C` [7CV] is less than 50 nM.
For the molecule `COc1ccc(-n2cnc3c(sc4nccc(N(C)CC(O)CO)c43)c2=O)cc1` (centres unmarked) [28HV], the IC50 under setting [1] is less than 50 nM.
As for `COc1ccc(-n2cnc3c(sc4nccc(N(C)C)c43)c2=O)cc1C` [7DJ], the IC50 under setting [2] is less than 50 nM.
`COc1ccc(Nc2ccnc3sc4c(=O)n(-c5ccc(OC)cc5)cnc4c23)cc1` [28FP]: the IC50 under setting [1] lay in the range of 150 to 1000 nM.
Same read-out and setting: next, `Cc1noc2cc(F)c(-n3cnc4c(sc5nccc(N(C)C)c54)c3=O)cc12` [28EL]: more than 1000 nM; `O=c1c2sc3nccc(OCC4CC4)c3c2ncn1-c1ccc(Br)cc1` [66L]: 150 to 1000 nM.
In the case of `CNc1ccnc2sc3c(=O)n(-c4ccc(C)cc4)c(C)nc3c12` [113G], under setting [2], the IC50 was less than 50 nM.
On to `O=c1c2sc3nccc(NCCCCO)c3c2ncn1-c1ccc(Br)cc1` [28GV], for which, under setting [1], the IC50 was less than 50 nM.
On the same count and under the same terms, next, `C#CCOc1ccnc2sc3c(=O)n(-c4ccc(Br)cc4)cnc3c12` [66I]: less than 50 nM; `C=CCNc1ncnc2sc3c(=O)n(-c4ccc(OC)cc4)cnc3c12` [95GP]: less than 50 nM.
Turning to `CNc1ccnc2sc3c(=O)n(-c4ccc5occc5c4)cnc3c12` [28BH], the IC50 under setting [1] was less than 50 nM.
The same measure, in the same setting: next, `C=C(C)CNc1ncnc2sc3c(=O)n(-c4ccc5c(c4)OCCO5)cnc3c12` [95FF]: less than 50 nM.
For the molecule `CN(C)c1ccnc2sc3c(=O)n(-c4ccc5scnc5c4)cnc3c12` [7CR], the IC50 under setting [2] was less than 50 nM.
With `Cc1cc(-n2cnc3c(sc4nccc(N(C)C)c43)c2=O)ccc1Br` [7DR], the IC50 under setting [3] was 1.73 nM and the IC50 under setting [2] is less than 50 nM.
As to `COc1ccc(-n2cnc3c(sc4nccc(NCC(F)(F)F)c43)c2=O)cc1` [28AW], the IC50 under setting [2] was less than 50 nM.
With `C#CCNc1ccnc2sc3c(=O)n(C4CCCCC4)cnc3c12` [72G], under setting [2], the IC50 is less than 50 nM.
With `C#CCOc1ccnc2sc3c(=O)n(-c4ccc(Cl)cc4)cnc3c12` [66G], under setting [1], the IC50 is less than 50 nM.
The same measure, in the same setting: next, `COc1ccc(-n2cnc3c(sc4nccc(C(C)C)c43)c2=O)cc1` [29H]: less than 50 nM.
For `C=C(C)CNc1ccnc2sc3c(=O)n(-c4ccc(Br)cc4)cnc3c12` [28FC], the IC50 under setting [1] was less than 50 nM.
On the same count and under the same terms, next, `CCc1ccnc2sc3c(=O)n(-c4ccc(Cl)cc4)cnc3c12` [29K]: less than 50 nM.
On to `Cc1ccc(-n2cnc3c(sc4nc(N5CCOCC5)cc(N(C)C)c43)c2=O)cc1` [59C], for which, under setting [2], the IC50 is more than 1000 nM.
Take `CN(C)c1ccnc2sc3c(=O)n(C4CCCCCC4)cnc3c12` [7X]: the IC50 under setting [3] amounted to 0.68 nM and the IC50 under setting [2] was less than 50 nM.
For the molecule `C=C(OCC)c1ccnc2sc3c(=O)n(-c4ccc(Cl)cc4)cnc3c12` [183A], the IC50 under setting [1] was 150 to 1000 nM.
The same measure, in the same setting: next, `COc1ccc(-n2cnc3c(sc4nc(C)nc(N)c43)c2=O)cc1` [95EU]: 150 to 1000 nM.
As to `COc1ccc(-c2c(C(C)=O)c(C)nc3sc4c(=O)n(-c5ccccc5)cnc4c23)cc1` [P-12], the IC50 under setting [2] lay within 150 to 1000 nM.
Still for that read-out and setting: the figure for `CN(C)c1ccnc2sc3c(=O)n(C(C)(C)C)cnc3c12` [15P] is 150 to 1000 nM.
On the same count and under the same terms, the figure for `O=c1c2sc3nccc(N4CC[C@H](O)C4)c3c2ncn1C1CCCCC1` [28N] is more than 1000 nM; for `CNc1ccnc2sc3c(=O)n(-c4ccc(O)cc4)cnc3c12` [7CD] it is less than 50 nM; for `CN(C)c1cncc2sc3c(=O)n(-c4ccccc4)cnc3c12` [37D] it is 150 to 1000 nM.
Consider `COc1ccnc2sc3c(=O)n(-c4ccc(Cl)cc4F)cnc3c12` [28FT], for which the IC50 under setting [1] fell in the range of 150 to 1000 nM.
Regarding `CC(=O)Nc1ccnc2sc3c(=O)n(C4CCCCC4)cnc3c12` [73B], the IC50 under setting [2] was more than 1000 nM.
Take `O=c1c2sc3nccc(NCCCCO)c3c2ncn1-c1ccc(F)cc1` [28GU]: the IC50 under setting [1] was less than 50 nM.
`CN(C)c1ccc(-n2cnc3c(sc4nccc(N(C)C)c43)c2=O)cc1` [7AJ]: the IC50 under setting [2] was less than 50 nM.
The same measure, in the same setting: next, `COc1cc(Br)c(-n2cnc3c(sc4nccc(N(C)C)c43)c2=O)c(Br)c1` [7BX]: more than 1000 nM.
As for `Cc1ccc(-n2cnc3c(sc4nc(C)cc(N(C)C)c43)c2=O)cc1` [7CK], the IC50 under setting [2] was less than 50 nM.
For `C[C@@H](O)CNc1ccnc2sc3c(=O)n(-c4ccc(Br)cc4)cnc3c12` [28HB], the IC50 under setting [1] is less than 50 nM.
In the case of `C#CCNc1ccnc2sc3c(=O)n(-c4ccc(C)cc4)cnc3c12` [28Z], the IC50 was 1.47 nM under setting [3] and less than 50 nM under setting [2].
Regarding `O=c1c2sc3nccc(O)c3c2ncn1C1CCCCC1` [26A], the IC50 under setting [2] is more than 1000 nM.
Take `CN(C)c1cccc2sc3c(=O)n(-c4cccc(F)c4)cnc3c12` [103M]: the IC50 under setting [1] lay in the range of 150 to 1000 nM.
Turning to `Cc1ccc(-n2cnc3c(sc4nccc(NC5CC5)c43)c2=O)cc1` [28AP], the IC50 under setting [2] is less than 50 nM.
For the molecule `CCNc1ccnc2sc3c(=O)n(-c4ccc(OC)cc4C)cnc3c12` [28BO], the IC50 under setting [1] was less than 50 nM.

In general, IC50 refers to the concentration at which inhibition is half-maximal.
